According to patent publication US7964635B2, “Amidoacetonitrile derivatives” (Novartis AG, priority 2003, dated 2011):

How the values were obtained:
[1] = test system: Haemonchus contortus; test: In-vivo test on Haemonchus contortus on Mongolian gerbils using peroral application; conditions: po, 72 h, worm count 3 days after treatment, read-out: Hc: efficacy, % reduction of the number of worms; for inhibition in vivo at 1 mg/kg: 1 mg/kg peroral; for inhibition in vivo at 3.2 mg/kg: 3.2 mg/kg peroral; for inhibition in vivo at 10 mg/kg: 10 mg/kg peroral
Description: (§1) 1. In-Vivo Test on Trichostrongylus colubriformis and Haemonchus contortus on Mongolian Gerbils (Meriones uncuiculatus) Using Peroral Application Six to eight week old Mongolian gerbils are infected through a stomach tube with ca. 2000 third instar larvae each of T. colubriformis and H. contortus. 6 days after infection, the gerbils are treated by peroral application with the test compounds, dissolved in a mixture of 2 parts DMSO and 1 part polyethylene glycol (PEG 400), in quantities of 100, 32 and 10-0.1 mg/kg. On day 9 (3 days after treatment), when most of the H. contortus that are still present are late 4th instar larvae and most of the T. colubriformis are immature adults, the gerbils are killed in order to count the worms. The efficacy is calculated as the % reduction of the number of worms in each gerbil, compared with the geometric average of number of worms from 6 infected and untreated gerbils. The following tables B1, B2 and B3 show a comparison of a series of the compounds of tables 1, 2 and 3 with structurally most closely related ones known from literature, proving the astounding efficacy increase in this test over the state of the art (Hc: Haemonchus contortus; Tc: Trichostrongylus colubriformis): […]

[2] = test system: Trichostrongylus colubriformis; test: In-vivo test on Trichostrongylus colubriformis on Mongolian gerbils using peroral application; conditions: po, 72 h, worm count 3 days after treatment, read-out: Tc: efficacy, % reduction of the number of worms; for inhibition in vivo at 1 mg/kg: 1 mg/kg peroral; for inhibition in vivo at 3.2 mg/kg: 3.2 mg/kg peroral; for inhibition in vivo at 10 mg/kg: 10 mg/kg peroral
Description: as §1

| Compound | inhibition in vivo at 1 mg/kg [1] | melting point | inhibition in vivo at 1 mg/kg [2] | also measured |
| --- | --- | --- | --- | --- |
| CC(C#N)(COc1ccc(C#N)cc1C(F)(F)F)NC(=O)c1ccc(SC(F)(F)F)cc1 (stereo not drawn) [No. 3.7, N-[1-cyano-1-methyl-2-(4-cyano-2-trifluoromethylphenoxy)-ethyl]-4-trifluoromethylsulfanyl-benzamide] | 90% | 79 to 82 °C | 98% | – |
| CC(C#N)(COc1ccc(C#N)cc1Cl)NC(=O)c1ccc(SC(F)(F)F)cc1 (stereo not drawn) [No. 3.1, N-[1-cyano-1-methyl-2-(4-cyano-2-chlorophenoxy)-ethyl]-4-trifluoromethylsulfanylbenzamide] | 69% | 167 to 169 °C | 93% | – |
| CC(C#N)(COc1cc(C#N)ccc1C(F)(F)F)NC(=O)c1ccc([S+]([O-])C(F)(F)F)cc1 (stereo not drawn) [No. 3.17, N-[1-cyano-1-methyl-2-(5-cyano-2-trifluoromethylphenoxy)-ethyl]-4-trifluoromethylsulfinyl-benzamide] | 100% | – | 100% | – |
| CC(C#N)(COc1ccc(C#N)cc1Cl)NC(=O)c1ccc(C(F)(F)F)cc1 (stereo not drawn) [No. 1.1, N-[1-cyano-1-methyl-2-(4-cyano-2-chlorophenoxy)-ethyl]-4-trifluoromethylbenzamide] | 97% | 147 to 149 °C | 87% | – |
| CC(C#N)(COc1ccccc1C(F)(F)F)NC(=O)c1ccc(C(F)(F)F)cc1 (stereo not drawn) [No. 1.264, reference compound] | – | – | – | inhibition in vivo at 3.2 mg/kg [1]: 57%; inhibition in vivo at 3.2 mg/kg [2]: 76% |
| CC(C#N)(COc1cc(C#N)ccc1C(F)(F)F)NC(=O)c1ccc(S(=O)(=O)C(F)(F)F)cc1 (stereo not drawn) [No. 3.18, N-[1-cyano-1-methyl-2-(5-cyano-2-trifluoromethylphenoxy)-ethyl]-4-trifluoromethylsulfonyl-benzamide] | 100% | – | 100% | – |
| CC(C#N)(COc1cc(C#N)ccc1Cl)NC(=O)c1ccc(OC(F)(F)F)cc1 (stereo not drawn) [No. 2.4, N-[1-cyano-1-methyl-2-(5-cyano-2-chlorophenoxy)-ethyl]-4-trifluoromethoxybenzamide] | 89% | 132 to 134 °C | 79% | – |
| CC(C#N)(COc1ccccc1C(F)(F)F)NC(=O)c1ccc(C(F)(F)F)cc1F (stereo not drawn) [No. 2.19, reference compound] | – | – | – | inhibition in vivo at 10 mg/kg [1]: 25%; inhibition in vivo at 10 mg/kg [2]: 0% |
| CC(C#N)(COc1ccc(C#N)cc1C(F)(F)F)NC(=O)c1ccc(C(F)(F)F)cc1 (stereo not drawn) [No. 1.3, N-[1-cyano-1-methyl-2-(4-cyano-2-trifluoromethylphenoxy)-ethyl]-4-trifluoromethyl-benzamide] | 97% | 184 to 186 °C | 91% | – |
| CC(C#N)(COc1ccc(Cl)cc1Cl)NC(=O)c1ccc(C(F)(F)F)cc1 (stereo not drawn) [No. 1.60, reference compound] | – | – | – | inhibition in vivo at 3.2 mg/kg [1]: 29%; inhibition in vivo at 3.2 mg/kg [2]: 31% |
| CC(C#N)(COc1cc(Cl)ccc1Cl)NC(=O)c1ccc(C(F)(F)F)cc1 (stereo not drawn) [No. 1.72, reference compound] | – | – | – | inhibition in vivo at 10 mg/kg [1]: 66% |
| CC(C#N)(COc1ccc(C#N)cc1Cl)NC(=O)c1ccc(OC(F)(F)F)cc1 (stereo not drawn) [No. 2.1, N-[1-cyano-1-methyl-2-(4-cyano-2-chlorophenoxy)-ethyl]-4-trifluoromethoxybenzamide] | – | 60 to 62 °C | – | inhibition in vivo at 3.2 mg/kg [1]: 100%; inhibition in vivo at 3.2 mg/kg [2]: 100% |
| CC(C#N)(COc1cc(C#N)ccc1C(F)(F)F)NC(=O)c1ccc(OC(F)(F)F)cc1 (stereo not drawn) [No. 2.6, N-[1-cyano-1-methyl-2-(5-cyano-2-trifluoromethylphenoxy)-ethyl]-4-trifluoromethoxybenzamide] | 95% | – | 85% | – |
| CC(C#N)(COc1cc(C#N)ccc1C(F)(F)F)NC(=O)c1ccc(C(F)(F)F)cc1 (stereo not drawn) [No. 1.6, N-[1-cyano-1-methyl-2-(5-cyano-2-trifluoromethylphenoxy)-ethyl]-4-trifluoromethyl-benzamide] | 97% | 154 °C | 87% | – |
| CC(C#N)(COc1ccccc1Cl)NC(=O)c1ccc(C(F)(F)F)cc1 (stereo not drawn) [No. 1.12, reference compound] | – | – | – | inhibition in vivo at 10 mg/kg [1]: 82%; inhibition in vivo at 10 mg/kg [2]: 98% |
| CC(C#N)(COc1ccccc1C(F)(F)F)NC(=O)c1ccc(OC(F)(F)F)cc1 (stereo not drawn) [No. 1.64, reference compound] | 28% | – | 55% | – |
| CC(C#N)(COc1ccccc1C(F)(F)F)NC(=O)c1ccc(SC(F)(F)F)cc1 (stereo not drawn) [No. 2.14, reference compound] | – | – | – | inhibition in vivo at 3.2 mg/kg [1]: 61%; inhibition in vivo at 3.2 mg/kg [2]: 73% |
| CC(C#N)(COc1cc(C#N)ccc1C(F)(F)F)NC(=O)c1ccc(SC(F)(F)F)cc1 (stereo not drawn) [No. 3.16, N-[1-cyano-1-methyl-2-(5-cyano-2-trifluoromethylphenoxy)-ethyl]-4-trifluoromethylsulfanyl-benzamide] | 100% | – | 100% | – |
| CC(C#N)(COc1ccc(C#N)cc1C(F)(F)F)NC(=O)c1ccc(S(=O)(=O)C(F)(F)F)cc1 (stereo not drawn) [No. 3.9, N-[1-cyano-1-methyl-2-(4-cyano-2-trifluoromethylphenoxy)-ethyl]-4-trifluoromethylsulfonyl-benzamide] | 77% | – | 87% | – |
| CC(C#N)(COc1ccc(C#N)cc1C(F)(F)F)NC(=O)c1ccc(OC(F)(F)F)cc1 (stereo not drawn) [No. 2.3, N-[1-cyano-1-methyl-2-(4-cyano-2-trifluoromethylphenoxy)-ethyl]-4-trifluoromethoxy-benzamide] | – | 80 to 82 °C | – | – |
| CC(C#N)(COc1cc(Cl)ccc1Cl)NC(=O)c1ccc(OC(F)(F)F)cc1 (stereo not drawn) [No. 1.124, reference compound] | – | – | – | inhibition in vivo at 10 mg/kg [1]: 84%; inhibition in vivo at 10 mg/kg [2]: 99% |
| CC(C#N)(COc1cc(C#N)ccc1Cl)NC(=O)c1ccc(C(F)(F)F)cc1 (stereo not drawn) [No. 1.4, N-[1-cyano-1-methyl-2-(5-cyano-2-chlorophenoxy)-ethyl]-4-trifluoromethylbenzamide] | 82% | 147 to 149 °C | – | – |
| CC(C#N)(COc1ccc(C#N)cc1C(F)(F)F)NC(=O)c1ccc([S+]([O-])C(F)(F)F)cc1 (stereo not drawn) [No. 3.8, N-[1-cyano-1-methyl-2-(4-cyano-2-trifluoromethylphenoxy)-ethyl]-4-trifluoromethylsulfinyl-benzamide] | 74% | – | 85% | – |
| CC(C#N)(COc1cc(C#N)ccc1Cl)NC(=O)c1ccc(SC(F)(F)F)cc1 (stereo not drawn) [No. 3.10, N-[1-cyano-1-methyl-2-(5-cyano-2-chlorophenoxy)-ethyl]-4-trifluoromethylsulfanylbenzamide] | 100% | 125 to 127 °C | 100% | – |
